Data taken from ChEMBL document CHEMBL6096736, “Development of a Highly Selective Ferroptosis Inducer Targeting GPX4 with 2-Ethynylthiazole-4-carboxamide as Electrophilic Warhead” (J Med Chem, 2025).
Activity calls are given as the source filed them. The rule behind the calls is not given here.

Columns and labels:
HT-1080 [1] = experiment: Cytotoxicity against human HT-1080 cells assessed as cell viability incubated for 24 hrs by CCK-8 assay; conditions: HT-1080, 24 h
HT-1080 [2] = experiment: Induction of ferroptosis in human HT-1080 cells assessed as reduction in cell viability incubated for 24 hrs in presence of Fer-1 by CCK-8 assay; conditions: HT-1080, 24 h
[3] = Selectivity index, ratio of IC50 for cytotoxicity against human HT-1080 cells assessed as cell viability incubated for 24 hrs by CCK-8 assay to IC50 for induction of ferroptosis in human HT-1080 cells assessed as reduction in cell viability incubated for 24 hrs […] by CCK-8 assay; type: functional
[4] = molecular target: T1, Phospholipid hydroperoxide glutathione peroxidase GPX4 (Homo sapiens, UniProt P36969); experiment: Binding affinity to human GPX4 assessed as dissociation constant by MST assay
T1 sequence (P36969 whole entry): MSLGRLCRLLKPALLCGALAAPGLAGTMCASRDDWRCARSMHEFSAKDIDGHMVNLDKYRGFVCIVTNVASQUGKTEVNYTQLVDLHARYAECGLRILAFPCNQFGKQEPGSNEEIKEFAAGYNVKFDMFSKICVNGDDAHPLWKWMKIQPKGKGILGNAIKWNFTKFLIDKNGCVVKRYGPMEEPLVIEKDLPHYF

HT-1080 [5] = experiment: Induction of ferroptosis in human HT-1080 cells assessed as increase in cellular ROS level at 0.5 uM incubated for 3 hrs by DCFH-DA staining based flow cytometry analysis; type: functional, cell-based
HT-1080 [6] = experiment: Induction of ferroptosis in human HT-1080 cells assessed as increase in cellular LPO level at 0.5 uM incubated for 3 hrs by BIODPY-C11 probe based flow cytometry analysis; type: functional, cell-based
HT-1080 [7] = experiment: Induction of morphological changes in human HT-1080 cells assessed as appearance of round shaped mitochondria by TEM analysis; type: functional, cell-based
HT-1080 [8] = experiment: Induction of morphological changes in human HT-1080 cells assessed as […] of mitochondria cristas by TEM analysis; type: functional, cell-based
HT-1080 [9] = experiment: Induction of ferroptosis in human HT-1080 cells assessed as increase in cellular ROS level at 0.1 uM incubated for 3 hrs by DCFH-DA staining based flow cytometry analysis; type: functional, cell-based
HT-1080 [10] = experiment: Induction of ferroptosis in human HT-1080 cells assessed as increase in cellular LPO level at 0.1 uM incubated for 3 hrs by BIODPY-C11 probe based flow cytometry analysis; type: functional, cell-based
HT-1080 [11] = experiment: Induction of ferroptosis in human HT-1080 cells assessed as increase in cellular MDA level at 0.1 uM incubated for 6 hrs; type: functional, cell-based

IC50 (HT-1080 [2]) [µM]	SMILES	IC50 (HT-1080 [1]) [nM]	Ratio IC50 [3]	also measured
6.83	C#Cc1nc(C(=O)N(c2ccc(-n3cccn3)cc2)C(C(=O)NC(C)(C)C)c2csc3ccccc23)cs1 (stereo not given)	239	29	
6.79	C#Cc1nc(C(=O)N(c2ccc(-c3cnco3)cc2)C(C(=O)NC(C)(C)C)c2cccs2)cs1 (stereo not given)	341	19.9	
9.43	C#Cc1nc(C(=O)N(c2ccc(-c3cnco3)cc2)C(C(=O)NC(C)(C)C)c2cncs2)cs1 (stereo not given)	500	17	
4.23	C#Cc1nc(C(=O)N(c2ccc(-n3cncn3)cc2)C(C(=O)NC(C)(C)C)c2csc3ccccc23)cs1 (stereo not given)	356	12	
6.12	C#Cc1nc(C(=O)N(c2ccc(-c3cnco3)cc2)C(C(=O)NCc2ccccc2)c2csc3ccccc23)cs1 (stereo not given)	32	191	
3.05	C#Cc1nc(C(=O)N(c2ccc(-c3cnco3)cc2)C(C(=O)NC(C)(C)C)c2csc3ccccc23)cs1 (stereo not given)	70		
8.41	C#Cc1nc(C(=O)N(c2ccc(C(F)(F)F)cc2)C(C(=O)NC(C)(C)C)c2csc3ccccc23)cs1 (stereo not given)	27	311	
6.14	C#Cc1nc(C(=O)N(c2ccc(-c3cnco3)cc2)C(C(=O)NC(C)(C)C)c2c[nH]cn2)cs1 (stereo not given)	459	13	
8.16	C#Cc1nc(C(=O)N(c2ccc(-c3cnco3)cc2)C(C(=O)NC(C)(C)C)c2ccncn2)cs1 (stereo not given)	354	23	
8.42	C#Cc1nc(C(=O)N(c2ccc(-c3cnco3)cc2)C(C(=O)NC(C)(C)C)c2c[nH]c3ccccc23)cs1 (stereo not given)	98	86	
9.03	C#Cc1nc(C(=O)N(c2ccc(-c3cnco3)cc2)C(C(=O)NCCc2ccccc2)c2csc3ccccc23)cs1 (stereo not given)	21	430	
4.6	O=C(NCCc1ccccc1)C(c1csc2ccccc12)N(C(=O)CCl)c1ccc(-c2cnco2)cc1 (stereo not given)	121	38	Kd [4]: 24.7 nM; Activity (HT-1080 [7]): Active; Activity (HT-1080 [8]): Active; Activity (HT-1080 [9]): Active; Activity (HT-1080 [10]): Active; Activity (HT-1080 [11]): Active
8.16	C#Cc1nc(C(=O)N(c2ccc(-c3cnco3)cc2)C(C(=O)NC(C)(C)C)C2CCCCC2)cs1 (stereo not given)	354	23	

The next lines start with the molecule.

SMILES	IC50 (HT-1080 [2]) [µM]	IC50 (HT-1080 [1]) [nM]	Ratio IC50 [3]	also measured
C#Cc1nc(C(=O)N(c2ccc(-c3cnco3)cc2)C(C(=O)NC(C)(C)C)c2ccc[nH]2)cs1 (stereo not given)	7.41	120	61.7	
C#Cc1nc(C(=O)N(c2ccc(-n3ccnc3)cc2)C(C(=O)NC(C)(C)C)c2csc3ccccc23)cs1 (stereo not given)	4.76	345	14	
C#Cc1nc(C(=O)N(c2ccc(-c3cnco3)cc2)C(C(=O)NC(C)(C)C)C2=CCCOC2)cs1 (stereo not given)	6.2	415	15	
C#Cc1nc(C(=O)N(c2ccc(-c3cnco3)cc2)C(C(=O)NC(C)(C)C)c2ccsc2)cs1 (stereo not given)	6.34	207	30.6	
C#Cc1nc(C(=O)N(c2ccc(-c3cnco3)cc2)C(C(=O)NC2CCCCC2)c2csc3ccccc23)cs1 (stereo not given)	3.87	17	228	
COC(=O)c1ccc([C@H]2c3[nH]c4ccccc4c3C[C@H](C(=O)OC)N2C(=O)CCl)cc1				Kd [4]: 43.7 nM; Activity (HT-1080 [5]): Active; Activity (HT-1080 [6]): Active
C#CC(=O)N(c1ccc(-c2cnco2)cc1)C(C(=O)NCCc1ccccc1)c1csc2ccccc12 (stereo not given)	4.75	425	11	
O=C(NCCc1ccccc1)C(c1csc2ccccc12)N(C(=O)c1cc([N+](=O)[O-])[nH]n1)c1ccc(-c2cnco2)cc1 (stereo not given)		> 5000		
Cc1onc(C(=O)N(c2ccc(-c3cnco3)cc2)C(C(=O)NCCc2ccccc2)c2csc3ccccc23)c1[N+](=O)[O-] (stereo not given)		> 5000		
C=CC(=O)N(c1ccc(-c2cnco2)cc1)C(C(=O)NCCc1ccccc1)c1csc2ccccc12 (stereo not given)	3.75	64	58	
O=C(NCCc1ccccc1)C(c1csc2ccccc12)N(C(=O)c1ccc([N+](=O)[O-])o1)c1ccc(-c2cnco2)cc1 (stereo not given)		> 5000		
C#Cc1nc(C(=O)N(c2ccc(-c3cnco3)cc2)C(C(=O)NC(C)(C)C)c2cc[nH]n2)cs1 (stereo not given)	7.16	375	19	
C#Cc1nc(C(=O)N(c2ccc(-c3cnco3)cc2)C(C(=O)NC(C)(C)C)c2cccc3ccccc23)cs1 (stereo not given)	8.65	22	393	
O=C(NCCc1ccccc1)C(c1csc2ccccc12)N(C(=O)c1ccc([N+](=O)[O-])s1)c1ccc(-c2cnco2)cc1 (stereo not given)		> 5000		
C#Cc1nc(C(=O)N(c2ccc(-c3cnco3)cc2)[C@H](C(=O)NC(C)(C)C)c2csc3ccccc23)cs1	11.7	12		
